{"source": "paper PMC10041537", "about": "“Molecular origins of mutational spectra produced by the environmental carcinogen N-nitrosodimethylamine and SN1 chemotherapeutic agents” (NAR Cancer, 2023)", "key": {"gpt reporter gene": {"system": "gpt reporter gene", "assay_type": "in vivo, C57BL/6J gptΔ transgenic mice", "procedure": "(§1) Most experiments utilized C57BL/6J gptΔ transgenic mice ([49],[50]), a gift from T. Nohmi. Some experiments used RaDR^R/R;gpt^g/g;Mgmt^−/− mice, which were created by crossing RaDR^R/R;gpt^g/gmice ([37]) with Mgmt^−/− mice ([51]). NDMA was synthesized and characterized as previously described ([52]) (Fig. S1). […] The first dose (3.5 mg/kg in 10 μl) was administered at 8 days of age, and the second dose (7 mg/kg in 20 μl) was administered at 15 days of age. Vehicle treated mice were administered equivalent volumes of saline. Mice were euthanized at ten weeks post-injection by CO2 inhalation. Both male and female mice were used in all experimental groups (n = 5) in all mouse experiments.\nThe gptΔ assay is the technology traditionally used with the gptΔ mouse to probe for small mutations in the 459 bp gpt transgene, of which approximately 160 copies exist in the mouse diploid genome ([50]). The gpt gene, which is not expressed in the mammalian cells, is contained in a λ-EG10 viral cassette that can be recovered ex vivo through a lambda packaging reaction.\nThe λ-EG10 phage was packaged in vitro from genomic DNA using a Transpack packaging extract (Agilent Technologies) and then transfected into E. coli YG6020 expressing Cre-recombinase, generating a 6.4 kb plasmid carrying the gpt and chloramphenicol acetyltransferase genes. These bacteria were cultured on selective media containing chloramphenicol (25 μg/ml, Sigma-Aldrich) and 6-TG (25 μg/ml, Sigma-Aldrich) or chloramphenicol alone. 6-TG resistance was confirmed by regrowth of colonies on plates containing chloramphenicol and 6-TG. The mutant frequency of each group was calculated (ratio of total 6-TG-resistant colonies to the average of chloramphenicol resistant colonies). The samples were processed and analyzed in a blinded fashion.\nIn this study, the gptΔ assay was performed on several tissues isolated from the mouse experiments. Specifically, the liver, kidneys, and lungs were collected at ten weeks following the second NDMA injection, flash frozen in liquid nitrogen, and stored at −80°C until analysis. Genomic DNA was extracted from ∼25 mg of liver tissue, one kidney, and whole lungs using the RecoverEase DNA Isolation Kit (Agilent Technologies)."}, "mouse genome": {"system": "mouse genome", "test": "Duplex sequencing, high-resolution mutational spectra and pLOGO of liver and lung of NDMA-treated wild-type mice", "assay_type": "in vivo, gptΔ C57BL/6J mice", "procedure": "as §1\nTo determine the identity of mutations and the sequence contexts in which they occur, we utilized a form of error-corrected sequencing called duplex sequencing (DS). Previously, we described how DS can be used directly on genomic samples derived from the gptΔ mouse to yield high-resolution mutational spectra in an unbiased (unselected) manner ([49]). Unlike the traditional gptΔ assay, DS evaluates the mutations throughout the entire 6382 bp transgenic region (which contains the gpt gene), without the need for a phenotypic selection. In the present work, 6.4 kb gpt-containing plasmids from gptΔ mouse livers and cell culture were isolated using a Miniprep Kit (Qiagen) following instructions of the manufacturer. Approximately 6 μg of plasmid DNA was diluted in 1× TE buffer-low EDTA, pH 8 (Thermo Scientific), transferred to a microTUBE AFA Fiber Pre-Slit Snap-Cap (Covaris) and sonicated using a Covaris E220 Focused-ultrasonicator. The following program was used to obtain 300–350 bp fragments: peak incident power = 140 W, duty factor = 10%, cycles per burst = 200, treatment time = 80 s, temperature = 4–7°C. DS libraries for gptΔ C57BL/6J mice and MEFs were prepared using the NEBNext Ultra II DNA Library Prep (E7103, NEB) or as described in Chawanthayatham et al. ([49]) and sequenced on a NextSeq500 or NovaSeq 6000 Illumina platform by using a 150 bp paired-end protocol (MIT BioMicro Center). DS libraries for the gptΔ mouse lungs and Mgmt^−/− mice were prepared using an input of 1 μg or 500 ng genomic DNA, respectively, using a TwinStrand Biosciences, Inc. Mouse Mutagenesis Kit according to the manufacturer's protocol. This kit uses probes that hybridize to 20 genomic regions, each 2.4 kb long. The genomic coordinates are provided in Supplementary Table S1. These probes were purposely selected to map in intronic and intergenic regions, to avoid selection bias. The libraries were sequenced on an Illumina NovaSeq 6000 DNA sequencer on an S4 flow cell using a 150 bp paired-end protocol (MIT BioMicro Center).\nFor each sample, the two fastq files generated by the Illumina sequencer were converted into an unaligned bam file, using Picard Tools. The resulting bam file was processed using UnifiedConsensusMaker.py (version 3.0) as available from the Kennedy Lab at University of Washington (https://github.com/Kennedy-Lab-UW/Duplex-Sequencing). Briefly, this program queries the molecular tags on each read and assembles them into families (strands with the same tag). These are subsequently collapsed into single-strand consensus sequences (SSCS). Then, the software identifies the SSCS corresponding to the complementary strand; these are grouped together as a double-strand consensus sequence (DCS). Unpaired SSCSs were flagged and ignored for the rest of the analysis. Sequence information was accepted only when the information from the two complementary DNA strands was in perfect agreement. The DCSs (as fastq files) were subsequently aligned to the target region (6382 nt in the λ-EG10 genome) using Burrows-Wheeler aligner. Unmapped reads were filtered out. Finally, the properly aligned DCS reads were trimmed (bases 1–8 and 120–137) and collapsed into a pileup file using SamTools. […]"}, "[1]": {"details": "C at -6 relative to G→A mutation, liver, WT mice"}}, "note": "Several values for one entry are separate records, joined by “and”; a condition that tells them apart may be missing. Equal values may be shown once."}
{"molecule": "CN(C)N=O", "note": "[NDMA, N-nitrosodimethylamine]", "values": [{"measurement": "elevated mutation frequency, kidney", "setting": "gpt reporter gene; kidney, 10 weeks after neonatal NDMA 10.5 mg/kg total i.p., vs controls", "result": "~2", "unit": "fold"}, {"measurement": "change in mutant frequencies, kidney, males and females", "setting": "gpt reporter gene; kidneys vs controls, only males significantly increased (P = 0.0079)", "result": "approximate doubling"}, {"measurement": "elevated mutation frequency, liver", "setting": "gpt reporter gene; liver, 10 weeks after neonatal NDMA 10.5 mg/kg total i.p., vs controls", "result": "~35", "unit": "fold"}, {"measurement": "increase in mutant frequency, liver, females", "setting": "gpt reporter gene; livers of females vs controls, 10 weeks post-exposure, P = 0.0079", "result": "~45", "unit": "fold"}, {"measurement": "increase in mutant frequency, liver, males", "setting": "gpt reporter gene; livers of males vs controls, 10 weeks post-exposure, P = 0.0079", "result": "~30", "unit": "fold"}, {"measurement": "elevated mutation frequency, lung", "setting": "gpt reporter gene; lung, 10 weeks after neonatal NDMA 10.5 mg/kg total i.p., vs controls", "result": "~4 fold and > 4 fold"}, {"measurement": "pLOGO Frequency (%)", "setting": "mouse genome; A at 1, lung, WT mice", "result": 32.2, "unit": "%"}, {"measurement": "pLOGO Value (log-odds binomial probability)", "setting": "mouse genome; A at 1, lung, WT mice", "result": 5.89}, {"measurement": "pLOGO Frequency (%)", "setting": "mouse genome; A at 2, lung, WT mice", "result": 32.0, "unit": "%"}, {"measurement": "pLOGO Value (log-odds binomial probability)", "setting": "mouse genome; A at 2, lung, WT mice", "result": 4.51}, {"measurement": "pLOGO Frequency (%)", "setting": "mouse genome; A at 3, liver, WT mice", "result": 28.4, "unit": "%"}, {"measurement": "pLOGO Value (log-odds binomial probability)", "setting": "mouse genome; A at 3, liver, WT mice", "result": 4.00}, {"measurement": "pLOGO Frequency (%)", "setting": "mouse genome; A at -1, liver, WT mice", "result": 30.9, "unit": "%"}, {"measurement": "pLOGO Value (log-odds binomial probability)", "setting": "mouse genome; A at -1, liver, WT mice", "result": 52.74}, {"measurement": "pLOGO Frequency (%)", "setting": "mouse genome; A at -1, lung, WT mice", "result": 45.9, "unit": "%"}, {"measurement": "pLOGO Value (log-odds binomial probability)", "setting": "mouse genome; A at -1, lung, WT mice", "result": 37.22}, {"measurement": "pLOGO Frequency (%)", "setting": "mouse genome; A at -2, lung, WT mice", "result": 34.3, "unit": "%"}, {"measurement": "pLOGO Value (log-odds binomial probability)", "setting": "mouse genome; A at -2, lung, WT mice", "result": 6.29}, {"measurement": "pLOGO Frequency (%)", "setting": "mouse genome; C at 1, liver, WT mice", "result": 38.4, "unit": "%"}, {"measurement": "pLOGO Value (log-odds binomial probability)", "setting": "mouse genome; C at 1, liver, WT mice", "result": 27.34}, {"measurement": "pLOGO Frequency (%)", "setting": "mouse genome; C at 4, liver, WT mice", "result": 26.0, "unit": "%"}, {"measurement": "pLOGO Value (log-odds binomial probability)", "setting": "mouse genome; C at 4, liver, WT mice", "result": 6.07}, {"measurement": "pLOGO Frequency (%)", "setting": "mouse genome; C at -3, liver, WT mice", "result": 31.4, "unit": "%"}, {"measurement": "pLOGO Value (log-odds binomial probability)", "setting": "mouse genome; C at -3, liver, WT mice", "result": 22.96}, {"measurement": "pLOGO Frequency (%)", "setting": "mouse genome; C at -5, liver, WT mice", "result": 26.7, "unit": "%"}, {"measurement": "pLOGO Value (log-odds binomial probability)", "setting": "mouse genome; C at -5, liver, WT mice", "result": 4.79}, {"measurement": "pLOGO Frequency (%)", "setting": "mouse genome; [1]", "result": 28.0, "unit": "%"}, {"measurement": "pLOGO Value (log-odds binomial probability)", "setting": "mouse genome; [1]", "result": 3.68}, {"measurement": "pLOGO Frequency (%)", "setting": "mouse genome; G at -1, liver, WT mice", "result": 47.4, "unit": "%"}, {"measurement": "pLOGO Value (log-odds binomial probability)", "setting": "mouse genome; G at -1, liver, WT mice", "result": 193.23}, {"measurement": "pLOGO Frequency (%)", "setting": "mouse genome; G at -1, lung, WT mice", "result": 39.2, "unit": "%"}, {"measurement": "pLOGO Value (log-odds binomial probability)", "setting": "mouse genome; G at -1, lung, WT mice", "result": 64.57}, {"measurement": "pLOGO Frequency (%)", "setting": "mouse genome; T at 1, liver, WT mice", "result": 23.8, "unit": "%"}, {"measurement": "pLOGO Value (log-odds binomial probability)", "setting": "mouse genome; T at 1, liver, WT mice", "result": 4.97}, {"measurement": "pLOGO Frequency (%)", "setting": "mouse genome; T at 1, lung, WT mice", "result": 29.1, "unit": "%"}, {"measurement": "pLOGO Value (log-odds binomial probability)", "setting": "mouse genome; T at 1, lung, WT mice", "result": 10.31}, {"measurement": "sequence context dependency of GC→AT mutations", "setting": "mouse genome; WT mice, Pu = purine, N = any base", "result": "5’-PuGN-3’"}, {"measurement": "AT→GC mutations, proportion of total number of mutations", "setting": "mouse genome; WT mice, after background subtraction", "result": 4.6, "unit": "%"}, {"measurement": "dominant mutation type of mutational spectrum", "setting": "mouse genome; liver and lung of WT mice, 10 weeks post NDMA", "result": "GC→AT transition mutations"}]}
